Drawing on ChEMBL document CHEMBL1641592, “Benzopyrazine derivatives: A novel class of growth factor receptor bound protein 7 antagonists” (Bioorg Med Chem, 2011), this text covers ΔTm and IC50 for seven compounds.

The target of experiment [1] is Growth factor receptor-bound protein 7 (Homo sapiens) (UniProt Q14451).
Description: Binding affinity to human GRB7 SH2-apo domain expressed in Escherichia coli BL21 (DE3) assessed as change in melting temperature at 200 uM by thermofluor based melting point shift assay
For experiment [2] the target is unchanged. The source holds these as a separate data set.
Description: Binding affinity to human GRB7 SH2-apo domain expressed in Escherichia coli BL21 (DE3) assessed as change in melting temperature at 100 uM by thermofluor based melting point shift assay
The next experiment relates to MDA-MB-468. The experiment in a line: Cytotoxicity against human MDA-MB-468 cells after 4 days by SRB assay. The settings on record: MDA-MB-468, 96 h.

Growth factor receptor-bound protein 7 (Homo sapiens), sequence (Q14451 whole entry): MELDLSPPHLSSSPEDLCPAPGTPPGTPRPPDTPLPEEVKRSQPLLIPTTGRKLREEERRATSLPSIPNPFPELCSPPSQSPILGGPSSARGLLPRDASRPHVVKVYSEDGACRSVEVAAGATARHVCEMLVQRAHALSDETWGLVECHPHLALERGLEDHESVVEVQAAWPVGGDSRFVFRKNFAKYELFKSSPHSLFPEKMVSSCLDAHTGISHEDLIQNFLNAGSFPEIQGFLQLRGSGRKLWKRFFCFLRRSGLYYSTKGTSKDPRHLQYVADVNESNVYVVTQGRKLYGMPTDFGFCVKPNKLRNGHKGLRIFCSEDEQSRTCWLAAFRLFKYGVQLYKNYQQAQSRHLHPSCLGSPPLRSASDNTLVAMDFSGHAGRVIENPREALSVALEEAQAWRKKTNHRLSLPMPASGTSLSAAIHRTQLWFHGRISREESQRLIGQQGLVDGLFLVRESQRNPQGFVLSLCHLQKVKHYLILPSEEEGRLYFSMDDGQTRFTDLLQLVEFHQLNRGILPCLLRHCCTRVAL

In the case of `COC(=O)C(=O)C(C(=O)C(=O)Nc1cc([N+](=O)[O-])ccc1C#N)c1nc2ccccc2nc1O` (stereo not drawn), the ΔTm in experiment [1] amounted to 0.95 °C; in experiment [2], 1.2 °C.
On the same counts, the results for `COC(=O)C(=O)C(C(=O)C(=O)Nc1ccc(C(N)=O)cc1)c1nc2ccc([N+](=O)[O-])cc2nc1O` (stereo not drawn) are 0.85 °C and 0.45 °C.
Taken in the same sequence, the figures for `COC(=O)C(=O)C(C(=O)C(=O)Nc1cccc(C(C)=O)c1)c1nc2ccc([N+](=O)[O-])cc2nc1O` (stereo not drawn) were 0.55 °C and 0.45 °C.
In the case of `COC(=O)C(=O)C(C(=O)C(=O)Nc1cc(C)ccc1C)c1nc2ccccc2nc1O` (stereo not drawn), the figures for the ΔTm in experiment [1] and in experiment [2] were 0.6 °C and 0.9 °C, respectively.
In the case of `COC(=O)C(=O)C(C(=O)C(=O)Nc1ccccc1C(N)=O)c1nc2ccc(C(=O)c3ccccc3)cc2nc1O` (stereo not drawn), in the experiment on MDA-MB-468, half-maximal inhibition (IC50) required 86 µM.
As to `C[C@@H](O)[C@@H]1NC(=O)[C@H](CC(N)=O)NC(=O)[C@H](CC(=O)O)NC(=O)[C@H](Cc2ccc(O)cc2)NC(=O)CNC(=O)[C@@H](CCC(=O)O)NC(=O)[C@H](Cc2ccccc2)NC(=O)[C@H](Cc2c[nH]c3ccccc23)NC(=O)CSC[C@@H](C(=O)O)NC(=O)[C@@H]2CCCN2C(=O)[C@H](Cc2ccccc2)NC1=O`, the ΔTm turned out to be 1.85 °C in experiment [1] and 1.35 °C in experiment [2].
Regarding `COC(=O)C(=O)C(C(=O)C(=O)Nc1ccccc1C(C)=O)c1nc2ccc(C(=O)c3ccccc3)cc2nc1O` (stereo not drawn), the ΔTm in experiment [1] was 0.55 °C; in experiment [2], 0.05 °C.
